Data as given in paper PMC11417357, “The SAVED domain of the type III CRISPR protease CalpL is a ring nuclease” (Nucleic Acids Research, 2024).
Changes are numbered by the printed parent chain. Read-outs that look alike come from different tables or passages of the source.

Legend:
Test in all cases: SPR, single-cycle kinetics, […] model, CalpL amine-coupled to CM5 chip
Format in all cases: binding
Settings in all cases: 20 mM Tris pH 8, 50 mM NaCl, 0.05% Tween20, 25 °C
CalpL [1] = target: T1, CalpL (Sulfurihydrogenibium sp. YO3AOP1, UniProt Z9OF32SUC9, H474A)
T1 construct: codon-optimized CalpL, Lon protease domain plus C-terminal SAVED domain; N-terminal 10xHis-TEV tag removed by TEV protease; expressed in E. coli BL21(DE3); monomer that oligomerizes with cA4
T1 sequence (Z9OF32SUC9 2-496 H474A): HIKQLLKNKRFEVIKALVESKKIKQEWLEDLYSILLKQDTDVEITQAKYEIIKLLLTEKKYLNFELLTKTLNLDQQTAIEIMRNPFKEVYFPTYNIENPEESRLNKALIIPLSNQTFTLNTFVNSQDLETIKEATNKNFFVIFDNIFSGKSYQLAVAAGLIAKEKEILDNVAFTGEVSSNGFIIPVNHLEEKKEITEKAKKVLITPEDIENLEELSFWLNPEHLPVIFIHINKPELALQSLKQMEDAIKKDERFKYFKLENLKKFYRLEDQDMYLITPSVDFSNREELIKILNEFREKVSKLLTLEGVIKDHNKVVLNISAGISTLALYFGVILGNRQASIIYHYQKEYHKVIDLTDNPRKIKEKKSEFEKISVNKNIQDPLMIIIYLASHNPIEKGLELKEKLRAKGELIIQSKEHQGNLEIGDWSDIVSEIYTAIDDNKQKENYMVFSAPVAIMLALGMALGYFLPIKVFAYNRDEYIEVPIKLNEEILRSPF

CalpL [2] = target: T2, CalpL (Sulfurihydrogenibium sp. YO3AOP1, UniProt Z9OF32SUC9, H345A)
T2 construct: codon-optimized CalpL, Lon protease domain plus C-terminal SAVED domain; N-terminal 10xHis-TEV tag removed by TEV protease; expressed in E. coli BL21(DE3); monomer that oligomerizes with cA4
T2 sequence (Z9OF32SUC9 2-496 H345A): T1 sequence (Z9OF32SUC9 2-496 H474A) with H344A, A473H

CalpL [3] = target: T3, CalpL (Sulfurihydrogenibium sp. YO3AOP1, UniProt Z9OF32SUC9)
T3 construct: codon-optimized CalpL, Lon protease domain plus C-terminal SAVED domain; N-terminal 10xHis-TEV tag removed by TEV protease; expressed in E. coli BL21(DE3); monomer that oligomerizes with cA4
T3 sequence (Z9OF32SUC9 2-496): T1 sequence (Z9OF32SUC9 2-496 H474A) with A473H

CalpL [4] = target: T3, CalpL; remark: listed apart in the source
CalpL [5] = target: T4, CalpL (Sulfurihydrogenibium sp. YO3AOP1, UniProt Z9OF32SUC9, H392A)
T4 construct: codon-optimized CalpL, Lon protease domain plus C-terminal SAVED domain; N-terminal 10xHis-TEV tag removed by TEV protease; expressed in E. coli BL21(DE3); monomer that oligomerizes with cA4
T4 sequence (Z9OF32SUC9 2-496 H392A): T1 sequence (Z9OF32SUC9 2-496 H474A) with H391A, A473H

CalpL [6] = target: T5, CalpL (Sulfurihydrogenibium sp. YO3AOP1, UniProt Z9OF32SUC9, R361E)
T5 construct: codon-optimized CalpL, Lon protease domain plus C-terminal SAVED domain; N-terminal 10xHis-TEV tag removed by TEV protease; expressed in E. coli BL21(DE3); monomer that oligomerizes with cA4
T5 sequence (Z9OF32SUC9 2-496 R361E): T1 sequence (Z9OF32SUC9 2-496 H474A) with R360E, A473H

CalpL [7] = target: T6, CalpL (Sulfurihydrogenibium sp. YO3AOP1, UniProt Z9OF32SUC9, R361A)
T6 construct: codon-optimized CalpL, Lon protease domain plus C-terminal SAVED domain; N-terminal 10xHis-TEV tag removed by TEV protease; expressed in E. coli BL21(DE3); monomer that oligomerizes with cA4
T6 sequence (Z9OF32SUC9 2-496 R361A): T1 sequence (Z9OF32SUC9 2-496 H474A) with R360A, A473H

Row | Structure (SMILES) | Kd (CalpL [1]) [nM] | Kd (CalpL [2]) [nM] | Kd (CalpL [5]) [nM] | further results
1 | Nc1ncnc2c1ncn2[C@@H]1O[C@@H]2COP(=O)(O)O[C@H]3[C@@H](F)[C@H](n4cnc5c(N)ncnc54)O[C@@H]3COP(=O)(O)O[C@H]3[C@@H](F)[C@H](n4cnc5c(N)ncnc54)O[C@@H]3COP(=O)(O)O[C@H]3[C@@H](F)[C@H](n4cnc5c(N)ncnc54)O[C@@H]3COP(=O)(O)O[C@H]2[C@H]1F [2′F-cA4] | 0.224 | 18.9 | – | Kd (CalpL [3]; non-hydrolysable analogue, read-out: KD): 1 nM
2 | Nc1ncnc2c1ncn2[C@@H]1O[C@H](COP(=O)(O)O[C@H]2[C@@H](O)[C@H](n3cnc4c(N)ncnc43)O[C@@H]2CO)[C@@H](OP(=O)(O)O)[C@H]1O [A2] | – | – | – | KD (CalpL [4]): decrease in affinity of CalpL towards A4 and A2 compared to cA4
3 | Nc1ncnc2c1ncn2[C@@H]1O[C@H](COP(=O)(O)O[C@H]2[C@@H](O)[C@H](n3cnc4c(N)ncnc43)O[C@@H]2COP(=O)(O)O[C@H]2[C@@H](O)[C@H](n3cnc4c(N)ncnc43)O[C@@H]2COP(=O)(O)O[C@H]2[C@@H](O)[C@H](n3cnc4c(N)ncnc43)O[C@@H]2CO)[C@@H](OP(=O)(O)O)[C@H]1O [A4] | – | – | 1.72 | Kd (CalpL [3]; apparent, read-out: apparent KD): 158 nM
4 | Nc1ncnc2c1ncn2[C@@H]1O[C@@H]2COP(=O)(O)O[C@H]3[C@@H](O)[C@H](n4cnc5c(N)ncnc54)O[C@@H]3COP(=O)(O)O[C@H]3[C@@H](O)[C@H](n4cnc5c(N)ncnc54)O[C@@H]3COP(=O)(O)O[C@H]3[C@@H](O)[C@H](n4cnc5c(N)ncnc54)O[C@@H]3COP(=O)(O)O[C@H]2[C@H]1O [cA4] | 48.6 | 68.7 | 0.0308 | Kd (CalpL [6]): 1 nM; Kd (CalpL [7]): 0.87 nM; Kd (CalpL [3]; apparent: ligand cleaved on the chip, depends on immobilization density, read-out: apparent KD): 50 nM
